Experimental data: ChEMBL document CHEMBL1201862, “PubChem BioAssay data set” (2004)
Structures can show the parent of a compound that is named as a salt.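 Protocol summary: plate cells (96-well), add compound at 5 concentrations, incubate 48 h, interpolate endpoints linearly. Here, GI50 denotes the concentration required for 50% inhibition of growth.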 Active and inactive are the calls of the source. Cut-off read from the data, not from the text of the source: active = GI50 up to about 1.1 µM and inactive = higher.

Columns and labels:
Assay in all cases: NCI-60 cell line screen, 48 h
HL-60 = system: HL-60
MCF7 = system: MCF7
HCC 2998 = system: HCC 2998
TK-10 = system: TK-10
LOX IMVI = system: LOX IMVI
SF-295 = system: SF-295
HOP-92 = system: HOP-92
RPMI-8226 = system: RPMI-8226
CAKI-1 = system: CAKI-1
OVCAR-3 = system: OVCAR-3
OVCAR-8 = system: OVCAR-8
U-251 = system: U-251
DU-145 = system: DU-145
UO-31 = system: UO-31
HCT-15 = system: HCT-15
T47D = system: T47D
SK-MEL-28 = system: SK-MEL-28
K562 = system: K562
A549 = system: A549

Row | SMILES | GI50 (HL-60) | GI50 (MCF7) | GI50 (HCC 2998) | GI50 (TK-10) | GI50 (LOX IMVI) | GI50 (SF-295) | GI50 (HOP-92) | GI50 (RPMI-8226) | GI50 (CAKI-1) | GI50 (OVCAR-3) | GI50 (OVCAR-8) | GI50 (U-251) | GI50 (DU-145) | GI50 (UO-31) | GI50 (HCT-15) [µM] | GI50 (T47D) | GI50 (SK-MEL-28) | GI50 (K562) | GI50 (A549)
1 | CCOC(=O)c1c(NC(=O)c2cccs2)sc2c1CCCC2 | > 100 µM (inactive) | > 79.6 µM (inactive) | > 100 µM (inactive) | 45.8 µM (inactive) | > 100 µM (inactive) | 27.3 µM (inactive) | 43.3 µM (inactive) | > 100 µM (inactive) | 60.4 µM (inactive) | 46.3 µM (inactive) | 61.9 µM (inactive) | 28.1 µM (inactive) | > 80.4 µM (inactive) | > 63.1 µM (inactive) | > 100 | 30.6 µM (inactive) | > 100 µM (inactive) | > 100 µM (inactive) | 55.5 µM (inactive)
2 | O=C(Nn1cnn2c(=O)c3ccccc3nc2c1=O)c1ccccc1 | > 100 µM (inactive) | > 100 µM (inactive) | > 100 µM (inactive) | > 100 µM (inactive) | > 100 µM (inactive) | > 100 µM (inactive) | > 100 µM (inactive) | > 100 µM (inactive) | > 100 µM (inactive) | > 100 µM (inactive) | > 100 µM (inactive) | > 100 µM (inactive) | > 100 µM (inactive) | > 100 µM (inactive) | > 100 | > 100 µM (inactive) | > 100 µM (inactive) | > 100 µM (inactive) | > 100 µM (inactive)
3 | CC(=O)Nc1cc2cc(NS(=O)(=O)c3ccc(Cl)c(Cl)c3)ccc2oc1=O | 43.5 µM (inactive) | 21.2 µM (inactive) | 40.5 µM (inactive) | 43.2 µM (inactive) | 20 µM (inactive) | 19.6 µM (inactive) | 20.8 µM (inactive) | 40.3 µM (inactive) | 20 µM (inactive) | > 100 µM (inactive) | 17.8 µM (inactive) | 22.6 µM (inactive) | > 100 µM (inactive) | 46 µM (inactive) | 90.6 | 3.21 µM (inactive) | 35 µM (inactive) | 56.5 µM (inactive) | 32.7 µM (inactive)
4 | C[C@]12CC[C@@H]3c4ccc(O)cc4CC[C@H]3[C@@H]1C/C(=C\c1ccc(C#N)cc1)C2=O |  | 45.5 µM (inactive) | 37.3 µM (inactive) | 34.1 µM (inactive) | 40.8 µM (inactive) | 71.6 µM (inactive) | 26.8 µM (inactive) | 13.3 µM (inactive) | 82.8 µM (inactive) | 21.9 µM (inactive) | 55.5 µM (inactive) | 24.7 µM (inactive) | 57.4 µM (inactive) | 46.9 µM (inactive) | 71.8 | 46.8 µM (inactive) | 36.2 µM (inactive) | > 100 µM (inactive) | 30.8 µM (inactive)
5 | NS(=O)(=O)c1ccc(NCc2cnc3ccccc3n2)cc1 | > 100 µM (inactive) | > 100 µM (inactive) | > 100 µM (inactive) | > 100 µM (inactive) |  | > 100 µM (inactive) | > 100 µM (inactive) | > 100 µM (inactive) | > 100 µM (inactive) | > 100 µM (inactive) | > 100 µM (inactive) | > 100 µM (inactive) | > 100 µM (inactive) | > 100 µM (inactive) | > 100 | > 100 µM (inactive) | > 100 µM (inactive) | > 100 µM (inactive) | > 100 µM (inactive)
6 | CC[C@@H]1C(=O)OC[C@@H]1Cc1cncn1C [PILOCARPINE HYDROCHLORIDE] | > 100 µM (inactive) | > 100 µM (inactive) | > 100 µM (inactive) | > 100 µM (inactive) | > 100 µM (inactive) | > 100 µM (inactive) | > 100 µM (inactive) | > 100 µM (inactive) | > 100 µM (inactive) | > 100 µM (inactive) | > 100 µM (inactive) | > 100 µM (inactive) | > 100 µM (inactive) | > 100 µM (inactive) | > 100 | > 100 µM (inactive) | > 100 µM (inactive) | > 100 µM (inactive) | > 100 µM (inactive)
7 | CC1(C)CN=C(Nc2ccc(F)c(F)c2)S1 | > 100 µM (inactive) | > 100 µM (inactive) | > 100 µM (inactive) | > 100 µM (inactive) | > 100 µM (inactive) | > 100 µM (inactive) | 31.4 µM (inactive) | > 100 µM (inactive) | > 100 µM (inactive) | > 100 µM (inactive) | > 100 µM (inactive) | > 100 µM (inactive) | > 100 µM (inactive) | > 100 µM (inactive) | > 100 | > 100 µM (inactive) | > 100 µM (inactive) | > 100 µM (inactive) | > 100 µM (inactive)
8 | COc1ccc(C2=CC(C(C)=C(C(N)=O)C(N)=O)C=C(c3ccc(Br)cc3)C2)c(OC)c1 (configuration not stated) | > 100 µM (inactive) | > 100 µM (inactive) | > 100 µM (inactive) | > 100 µM (inactive) | > 100 µM (inactive) | > 100 µM (inactive) | 31.8 µM (inactive) | > 100 µM (inactive) | > 100 µM (inactive) | > 100 µM (inactive) | > 100 µM (inactive) | > 100 µM (inactive) | > 100 µM (inactive) | 39.9 µM (inactive) | > 100 | 39.1 µM (inactive) | > 100 µM (inactive) | > 100 µM (inactive) | > 100 µM (inactive)
9 | OC[C@@H](O)[C@H](O)[C@H](O)[C@@H](O)C1SCCCS1 |  | > 100 µM (inactive) | > 100 µM (inactive) | > 100 µM (inactive) |  | > 100 µM (inactive) | 17.2 µM (inactive) | > 100 µM (inactive) | > 100 µM (inactive) | > 100 µM (inactive) | > 100 µM (inactive) | > 100 µM (inactive) | > 100 µM (inactive) | > 100 µM (inactive) | > 100 | > 100 µM (inactive) | > 100 µM (inactive) |  | > 100 µM (inactive)
10 | CN(CCCCN1CCCC1)CCCN(C)C(=O)Cc1ccc(Cl)c(Cl)c1 | 15.3 µM (inactive) | 17.4 µM (inactive) | 3.62 µM (inactive) | 17.7 µM (inactive) | 11.9 µM (inactive) | 19.3 µM (inactive) | 4.57 µM (inactive) | 5.85 µM (inactive) | 21.1 µM (inactive) | 19.1 µM (inactive) | 24.4 µM (inactive) | 16 µM (inactive) | 37.1 µM (inactive) | 1.95 µM (inactive) | 27.3 | 21 µM (inactive) | 1.79 µM (inactive) | 3.05 µM (inactive) | 18.7 µM (inactive)
11 | CSC12c3cc(C)n(-c4ccc([N+](=O)[O-])cc4)c3CC(C)(C)CN1C(=O)C2Oc1ccccc1 (configuration not stated) |  | 28.6 µM (inactive) | 35.5 µM (inactive) |  | > 100 µM (inactive) | > 100 µM (inactive) | 24.2 µM (inactive) | 31.9 µM (inactive) | 18.5 µM (inactive) | > 100 µM (inactive) | > 100 µM (inactive) | > 100 µM (inactive) | > 100 µM (inactive) | > 100 µM (inactive) | > 100 | 32.7 µM (inactive) | > 100 µM (inactive) | > 100 µM (inactive) | 46.1 µM (inactive)
12 | CC(C(=O)N1C(=O)N(C(=O)C(C)C(O)c2ccccc2)C(c2ccccc2)C1c1ccccc1)C(O)c1ccccc1 (configuration not stated) | 2.27 µM (inactive) | 4.43 µM (inactive) | 20.9 µM (inactive) | 22.6 µM (inactive) | 11.9 µM (inactive) | 2.84 µM (inactive) | 5.92 µM (inactive) | 4.01 µM (inactive) |  | 5.94 µM (inactive) | 7.98 µM (inactive) | 10.4 µM (inactive) | 21.3 µM (inactive) | 5.33 µM (inactive) | 15.5 | 6.47 µM (inactive) | 15.8 µM (inactive) | 4.47 µM (inactive) | 4.85 µM (inactive)
13 | O=C(CCc1cc(O)cc(O)c1)NCCCNC(=O)CCc1cc(O)cc(O)c1 |  | > 100 µM (inactive) | > 100 µM (inactive) | > 100 µM (inactive) | > 100 µM (inactive) | > 100 µM (inactive) | > 100 µM (inactive) | > 100 µM (inactive) | > 100 µM (inactive) | > 100 µM (inactive) | > 100 µM (inactive) | > 100 µM (inactive) | > 100 µM (inactive) | > 100 µM (inactive) | > 100 | > 100 µM (inactive) | > 100 µM (inactive) | > 100 µM (inactive) | > 100 µM (inactive)
14 | O=C1C(=Cc2ccco2)C(=O)C2CCCCC12 (configuration not stated) |  | > 100 µM (inactive) | > 100 µM (inactive) | > 100 µM (inactive) | > 100 µM (inactive) | > 100 µM (inactive) | > 100 µM (inactive) | > 100 µM (inactive) | > 100 µM (inactive) | > 100 µM (inactive) | > 100 µM (inactive) | > 100 µM (inactive) | > 100 µM (inactive) |  | > 100 | > 100 µM (inactive) | > 100 µM (inactive) | 17.6 µM (inactive) | > 100 µM (inactive)
15 | O=Cc1ccc(Oc2c3ccccc3nc3ccccc23)cc1 | < 0.01 µM (active) | 4.42 µM (inactive) | 14.8 µM (inactive) | 6.03 µM (inactive) | 2.9 µM (inactive) | 19.6 µM (inactive) | 4.74 µM (inactive) | 2.39 µM (inactive) | 7.05 µM (inactive) | 10.9 µM (inactive) | 5.75 µM (inactive) | 5.27 µM (inactive) | 3.84 µM (inactive) |  | 4.16 | 3.66 µM (inactive) | 12.6 µM (inactive) |  | 18.8 µM (inactive)
